In US20250268845A1, “BONE REGENERATION COMPOSITION INCLUDING HORDENINE AND USE THEREOF” ([…]., priority 2023, published 2025):

Tests used:
osteoclasts [1] = experiment: Bone resorption assay on dentin disc through hematoxylin staining; type: cell-based, mice; details: 10, 20, or 40 μM for 3 days, pre-osteoclasts from BMMs, compared to non-treatment; FIG. 5A
Method: (§1) Specifically, bone marrow-derived macrophages (BMMs) were isolated from 3- to 4-week-old mice and cultured. On day 5, the BMMs were treated with receptor activator of nuclear factors KB ligand (RANKL) and macrophage-colony stimulating factor (M-CSF) for 3 days to be differentiated into pre-osteoclasts. Thereafter, to confirm the degree of osteoclast activation, the pre-osteoclasts were treated with 10, 20, or 40 μM of hordenine for 3 days, and a bone resorption assay through hematoxylin staining and a dentin disc actin ring assay through immunofluorescence staining were performed to confirm the degree of osteoclast activation. Bone resorption assay is a method of seeding osteoclasts on a dentin disc, which is an experimental bone tissue simulating the dentin component of bone, and quantifying the extent to which osteoclasts eat away at the bone. When holes formed by bone erosion are quantified, the pit area is measured, and a lower measurement indicates a lower degree of bone erosion. The more extensively the disc is eroded, the more intensely the disc stains with hematoxylin, while less eroded areas stain more lightly. […]

[2] = test system: osteoarthritis induced by DMM; experiment: Cartilage regeneration in DMM-induced osteoarthritis, Safranin O and fast green staining; type: in vivo, mice; details: 2 mg/kg intra-articularly for 4 weeks from week 5 after DMM, examined at week 9
Method: Specifically, osteoarthritis was induced by incising the ligament that stabilizes the medial meniscus in the joint tissue of 9-week-old mice. Starting from week 5 after destabilization of the medial meniscus (DMM), 2 mg/kg of hordenine was injected intra-articularly for 4 weeks, and at week 9, the mice were sacrificed and the joint tissues were examined by staining with Safranin O and fast green. The experimental process is illustrated in FIG. 2, and the experimental results are illustrated in FIGS. 3A and 3B.

osteoclasts [3] = experiment: Dentin disc actin ring assay through immunofluorescence staining; type: cell-based, mice; details: 10, 20, or 40 μM for 3 days, pre-osteoclasts from BMMs, compared to non-treatment; FIG. 5B
Method: as §1

osteoclasts [4] = experiment: LPS-induced bone destruction in mouse skull, TRAP staining; type: in vivo, mice; details: 1 mg/kg intra-calvarially for 5 days after LPS 12.5 mg/kg; skulls harvested 6 days after the first LPS injection day; compared to LPS only; FIG. 6
Method: Specifically, 12.5 mg/kg of lipopolysaccharide (LPS) was injected intra-calvarially into the skull of 5-week-old male mice twice in total: once on the first injection day and once 2 days after the first injection day, thereby inducing bone destruction. Thereafter, 1 mg/kg of hordenine was injected intra-calvarially for 5 days, starting 1 day after the first LPS injection day. 6 days after the first LPS injection day, the mice were sacrificed and the skulls were harvested from the mice. Then, the degree of osteoclast differentiation was evaluated by tartrate-resistant acid phosphatase (TRAP) staining. The results thereof are illustrated in FIG. 6.

mesenchymal stem cells = experiment: Differentiation of mesenchymal stem cells into chondrocytes, Alcian blue staining; type: cell-based; details: 5 or 10 µM hordenine, compared to the group treated only with a differentiation medium, FIG. 1
Method: Specifically, mesenchymal stem cells were seeded at 2.5×10^4 cells/48 well and divided into a group treated only with the basic medium α-MEM, a group treated only with a differentiation medium (Chondrogenic media (CM)), and groups treated with 5 or 10 µM hordenine. After a few days, the degree of chondrocyte differentiation was evaluated by Alcian blue staining.

Structure (SMILES): CN(C)CCc1ccc(O)cc1 [hordenine, 4-(2-dimethylaminoethyl) phenol]
- hematoxylin staining (bone erosion of dentin disc) (osteoclasts [1]): became lighter in a concentration-dependent manner
- pit area (osteoclasts [1]): reduced
- cartilage degradation (OARSI grade) [2]: decrease
- osteophytes caused by osteoarthritis induction [2]: reduced
- synovitis [2]: reduced
- thickness of subchondral bone plate (SBP) [2]: reduced
- cartilage (red portion) that had collapsed due to DMM ([2]; FIGS. 3A and 3B): restored
- number of osteoclasts forming actin rings (osteoclasts [3]): decreased in a concentration-dependent manner
- TRAP staining of skulls (degree of osteoclast differentiation) (osteoclasts [4]): lightly stained with TRAP
- degree of differentiation from mesenchymal stem cells into chondrocytes (mesenchymal stem cells): much higher
